Assay results as given in ChEMBL document CHEMBL5257033, “Pyrrolidinone and pyrrolidine derivatives: Evaluation as inhibitors of InhA and Mycobacterium tuberculosis” (Eur J Med Chem, 2016).
Values after ≈ are worked out from the molar mass of the structure shown. Values joined by “and” are separate entries in the source; they are usually repeats but may differ in a detail not shown here. Equal entries are not always repeated. Active and inactive are the calls of the source. The calls are words filed in the database; no cut-off is given here.

Columns and labels:
[1] = tested on: Mycolicibacterium smegmatis; test: Antimycobacterial activity against Mycobacterium smegmatis MC2 155 assessed as inhibition of bacterial growth at 6.2 uM incubated for 16 hrs relative to control; type: functional
[2] = tested on: Mycolicibacterium smegmatis; test: Antimycobacterial activity against Mycobacterium smegmatis MC2 155 assessed as reduction in trehalose monomycolates level at 6.2 uM incubated for 16 hrs by TLC analysis; type: functional, organism-based
[3] = tested on: Mycolicibacterium smegmatis; test: Antimycobacterial activity against Mycobacterium smegmatis MC2 155 assessed as reduction in trehalose dimycolates level at 6.2 uM incubated for 16 hrs by TLC analysis; type: functional, organism-based
[4] = tested on: Mycolicibacterium smegmatis; test: Antimycobacterial activity against Mycobacterium smegmatis MC2 155 assessed as reduction in cell wall bound mycolic acid methyl esters at 6.2 uM incubated for 16 hrs by TLC analysis; type: functional, organism-based
[5] = tested on: Mycolicibacterium smegmatis; test: Antimycobacterial activity against Mycobacterium smegmatis MC2 155 assessed as reduction in phosphatidylethanolamine synthesis at 6.2 uM incubated for 16 hrs by TLC analysis; type: functional, organism-based
[6] = tested on: Mycolicibacterium smegmatis; test: Disruption of trans-membrane electrical charge gradient of proton motive force in Mycobacterium smegmatis by DiSC3(5)-probe based fluorescence assay; type: functional, organism-based
[7] = tested on: Mycobacterium tuberculosis; test: Antimycobacterial activity against wild type Mycobacterium tuberculosis H37Rv assessed as bacterial growth inhibition measured after 21 days by microbroth dilution method; type: functional; conditions: for MIC: 504 h, time 21 day
[8] = (§1) Cytotoxicity against human MRC5 cells assessed as reduction in cell number measured after 72 hrs by Hoechst 33342 staining based microscopic analysis; type: toxicity; conditions: MRC5 cells, read-out: LD50
MRC5 = test: as §1; type: toxicity; conditions: mrc5, 72 h
[9] = tested on: Mycobacterium tuberculosis; test: Antimycobacterial activity against 14C acetate-labeled Mycobacterium tuberculosis H37Ra assessed as reduction in trehalose dimycolates level at 3.7 uM incubated for 24 hrs by autoradiography based TLC analysis; type: functional, organism-based
[10] = tested on: Mycobacterium tuberculosis; test: Antimycobacterial activity against 14C acetate-labeled Mycobacterium tuberculosis H37Ra assessed as reduction in trehalose monomycolates level at 3.7 uM incubated for 24 hrs by autoradiography based TLC analysis; type: functional, organism-based
[11] = tested on: Mycobacterium tuberculosis; test: Antimycobacterial activity against 14C acetate-labeled Mycobacterium tuberculosis H37Ra assessed as inhibition of bacterial growth at 42 uM incubated for 24 hrs by autoradiography based TLC analysis relative to control; type: functional
[12] = tested on: Mycobacterium tuberculosis; test: Antimycobacterial activity against 14C acetate-labeled Mycobacterium tuberculosis H37Ra assessed as inhibition of bacterial growth at 84 uM incubated for 24 hrs by autoradiography based TLC analysis relative to control; type: functional; conditions: AT84
[13] = tested on: Mycobacterium tuberculosis; test: Antimycobacterial activity against 14C acetate-labeled Mycobacterium tuberculosis H37Ra assessed as reduction in trehalose dimycolates level at 42 to 84 uM incubated for 24 hrs by autoradiography based TLC analysis; type: functional, organism-based; conditions: dose 42-84 µM
[14] = tested on: Mycobacterium tuberculosis; test: Antimycobacterial activity against 14C acetate-labeled Mycobacterium tuberculosis H37Ra assessed as reduction in trehalose monomycolates level at 42 to 84 uM incubated for 24 hrs by autoradiography based TLC analysis; type: functional, organism-based; conditions: dose 42-84 µM
[15] = tested on: Mycobacterium tuberculosis; test: Antimycobacterial activity against 14C acetate-labeled Mycobacterium tuberculosis H37Ra assessed as reduction in cell wall bound mycolic acid level at 42 to 84 uM incubated for 24 hrs by autoradiography based TLC analysis; type: functional, organism-based; conditions: dose 42-84 µM
[16] = tested on: Mycolicibacterium smegmatis; test: Antimycobacterial activity against Mycobacterium smegmatis MC2 155 assessed as inhibition of bacterial growth at 16.8 uM incubated for 16 hrs relative to control; type: functional
[17] = tested on: Mycolicibacterium smegmatis; test: Antimycobacterial activity against Mycobacterium smegmatis MC2 155 assessed as reduction in trehalose monomycolates level at 16.8 uM incubated for 16 hrs by TLC analysis; type: functional, organism-based
[18] = tested on: Mycolicibacterium smegmatis; test: Antimycobacterial activity against Mycobacterium smegmatis MC2 155 assessed as reduction in cell wall bound mycolic acid methyl esters at 16.8 uM incubated for 16 hrs by TLC analysis; type: functional, organism-based
[19] = tested on: Mycolicibacterium smegmatis; test: Antimycobacterial activity against Mycobacterium smegmatis MC2 155 assessed as reduction in trehalose dimycolates level at 16.8 uM incubated for 16 hrs by TLC analysis; type: functional, organism-based
[20] = tested on: Mycolicibacterium smegmatis; test: Antimycobacterial activity against Mycobacterium smegmatis MC2 155 assessed as reduction in phosphatidylethanolamine synthesis at 16.8 uM incubated for 16 hrs by TLC analysis; type: functional, organism-based
[21] = tested on: Mycolicibacterium smegmatis; test: Disruption of trans-membrane electrical charge gradient of proton motive force in Mycobacterium smegmatis up to 280 uM by DiSC3(5)-probe based fluorescence assay; type: functional, organism-based
Escherichia coli [22] = test: Antibacterial activity against Escherichia coli BL21(DE3) assessed as inhibition of bacterial growth incubated for 4 hrs; type: functional, organism-based; conditions: dose 35-140 µM
Escherichia coli [23] = test: Antibacterial activity against Escherichia coli BL21(DE3) assessed as reduction in phosphatidylethanolamine incubated for 4 hrs by TLC analysis; type: functional, organism-based
[24] = target: T1, Enoyl-[acyl-carrier-protein] reductase [NADH] (Mycobacterium tuberculosis) (UniProt P9WGR1); test: Inhibition of Mycobacterium tuberculosis InhA at 50 uM using trans-2-dodecenoyl-coenzyme A as substrate in presence of NADH
T1 sequence (whole entry): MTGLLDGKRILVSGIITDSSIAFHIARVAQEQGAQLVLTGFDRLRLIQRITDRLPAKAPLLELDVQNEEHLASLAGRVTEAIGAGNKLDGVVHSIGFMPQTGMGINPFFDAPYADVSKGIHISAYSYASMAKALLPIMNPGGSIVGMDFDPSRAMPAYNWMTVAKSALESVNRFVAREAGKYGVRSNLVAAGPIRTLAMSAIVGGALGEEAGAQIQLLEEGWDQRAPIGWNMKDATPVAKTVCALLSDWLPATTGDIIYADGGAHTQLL

[25] = tested on: Mycolicibacterium smegmatis; test: Antimycobacterial activity against Mycobacterium smegmatis MC2 155 assessed as inhibition of bacterial growth at 2 uM incubated for 16 hrs relative to control; type: functional
[26] = tested on: Mycolicibacterium smegmatis; test: Antimycobacterial activity against Mycobacterium smegmatis MC2 155 assessed as inhibition of bacterial growth at 5 uM incubated for 16 hrs relative to control; type: functional
[27] = tested on: Mycolicibacterium smegmatis; test: Antimycobacterial activity against Mycobacterium smegmatis MC2 155 assessed as inhibition of bacterial growth at 10 uM incubated for 16 hrs relative to control; type: functional
[28] = tested on: Mycolicibacterium smegmatis; test: Disruption of trans-membrane electrical charge gradient of proton motive force in Mycobacterium smegmatis at 30 uM by DiSC3(5)-probe based fluorescence assay; type: functional, organism-based
[29] = target: T1, Enoyl-[acyl-carrier-protein] reductase [NADH] (Mycobacterium tuberculosis); test: Inhibition of Mycobacterium tuberculosis InhA at 5 uM using trans-2-dodecenoyl-Coenzyme A as substrate in presence of NADH relative to control

SMILES: O=C(Nc1ccc(F)c(F)c1F)NC12CC3CC(CC(C3)C1)C2
- inhibition at 6.2 µM [1]: 60%
- Activity [2]: inactive
- Activity [3]: Active
- Activity [4]: Active
- Activity [5]: Active
- Activity [6]: inactive

SMILES: O=C(c1ccc2[nH]ccc2c1)N1CCN(C2c3ccccc3-c3ccccc32)CC1
- MIC [7]: > 16 µg/mL and > 40.7 µM

SMILES: CCCCCCCCC(=O)N1CCC(C2c3ccccc3-c3ccccc32)C1 (stereo unspecified)
- MIC [7]: 21.3 µM and 8 µg/mL

SMILES: c1ccc(CCN2CCC(C3c4ccccc4-c4ccccc43)C2)cc1 (stereo unspecified)
- MIC [7]: 14.7 µM and 5 µg/mL
- CC50 at 72 h [8]: 18.9 µM

SMILES: O=C1C(C2c3ccccc3-c3ccccc32)CCN1Cc1ccc(Cl)cc1 (stereo unspecified)
- MIC [7]: 69 µM and 25 µg/mL
- Activity (MRC5): Non-Toxic

SMILES: NNC(=O)c1ccncc1 [ISONIAZID]
- MIC [7]: 0.025 µg/mL (≈ 0.182 µM)
- Activity [9]: Active
- Activity [10]: Active

SMILES: O=C1C(C2c3ccccc3-c3ccccc32)CCN1c1ccc(F)cc1 (stereo unspecified)
- MIC [7]: 14.6 µM and 5 µg/mL

SMILES: c1ccc(CN2CCC(C3c4ccccc4-c4ccccc43)C2)cc1 (stereo unspecified)
- MIC [7]: 5 µg/mL and 15.4 µM

SMILES: Oc1cc(Cl)ccc1Oc1ccc(Cl)cc1Cl [TRICLOSAN]
- MIC [7]: 34.5 µM and 10 µg/mL

SMILES: Clc1ccc(CN2CCC(C3c4ccccc4-c4ccccc43)C2)cc1 (stereo unspecified)
- MIC [7]: 1.4 µM and 0.5 µg/mL
- CC50 at 72 h [8]: 35 µM
- inhibition at 42 µM [11]: 43%
- inhibition at 84 µM [12]: 48%
- Activity [13]: Active
- Activity [14]: inactive
- Activity [15]: Active
- inhibition at 16.8 µM [16]: 57%
- Activity [17]: inactive
- Activity [18]: Active
- Activity [19]: Active
- Activity [20]: Active
- Activity [21]: inactive
- inhibition (Escherichia coli [22]): Dose-Dependent Effect
- Activity (Escherichia coli [23]): Active

SMILES: O=C1C(C2c3ccccc3-c3ccccc32)CCN1c1cc(Cl)cc(Cl)c1 (stereo unspecified)
- Activity ([7]; time 21.0 day): inactive
- inhibition [24]: inactive

SMILES: CCCCCCCCCN1CCC(C2c3ccccc3-c3ccccc32)C1 (stereo unspecified)
- MIC [7]: 1 µg/mL and 2.8 µM

SMILES: Clc1cc(Cl)cc(N2CCC(C3c4ccccc4-c4ccccc43)C2)c1 (stereo unspecified)
- MIC [7]: 66 µM and 25 µg/mL
- Activity (MRC5): Non-Toxic

SMILES: O=C1C(C2c3ccccc3-c3ccccc32)CCN1CCc1ccccc1 (stereo unspecified)
- MIC [7]: 1 µg/mL and 2.8 µM

SMILES: Fc1ccc(N2CCC(C3c4ccccc4-c4ccccc43)C2)cc1 (stereo unspecified)
- MIC [7]: 15.2 µM and 5 µg/mL

SMILES: O=C1C(C2c3ccccc3-c3ccccc32)CCN1Cc1ccccc1 (stereo unspecified)
- MIC [7]: > 74 µM and > 25 µg/mL

SMILES: O=C(c1ccccc1)N1CCC(C2c3ccccc3-c3ccccc32)C1=O (stereo unspecified)
- MIC [7]: > 45 µM and > 16 µg/mL

SMILES: N#CC(C#N)=NNc1cccc(Cl)c1 [CARBONYL CYANIDE M-CHLOROPHENYLHYDRAZONE]
- inhibition at 2 µM [25]: 0.2%
- inhibition at 5 µM [26]: 9%
- inhibition at 10 µM [27]: 66%
- Activity [28]: Active

SMILES: CCCCCCCCC(=O)N1CCC(C2c3ccccc3-c3ccccc32)C1=O (stereo unspecified)
- MIC [7]: 4 µg/mL and 10.3 µM

SMILES: O=C(c1ccccc1)N1CCC(C2c3ccccc3-c3ccccc32)C1 (stereo unspecified)
- inhibition [29]: 50%
- MIC [7]: > 16 µg/mL

SMILES: CCCCCCCCCN1CCC(C2c3ccccc3-c3ccccc32)C1=O (stereo unspecified)
- MIC [7]: 5 µg/mL and 13.3 µM
- Activity (MRC5): Non-Toxic
